Some test systems named below: SK-OV-3 ovarian; OVCAR-3 ovarian; NCI-H23 lung; KM12 colon; HT29 colon; HL-60(TB) leukemia; HCT-15 colon; SN12C renal; EKVX NSCLC.
What all share (assay): NCI-60 cell line screen, 48 h

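Cells were grown in 96-well plates and exposed to each compound for 48 hours at five concentrations; endpoints were interpolated linearly between bracketing concentrations, or set to the highest concentration if not reached. GI50 = concentration required for 50% inhibition of growth. Definition used: TGI = concentration required for complete inhibition of growth.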 Some results are limits rather than exact numbers.

Regarding `CC(=O)[O-].O=[N+]([O-])c1ccc([O-])c(C=NCCN=Cc2cc([N+](=O)[O-])ccc2[O-])c1.[Mn+3]`, the GI50 in the test with SK-OV-3 ovarian is > 100 µM; in the test on OVCAR-3 ovarian, 63 µM; in the test on NCI-H23 lung, > 100 µM; in the test with KM12 colon, > 100 µM; in the test on HT29 colon, > 100 µM; in the test on HL-60(TB) leukemia, > 100 µM. Further, the GI50 in the test on HCT-15 colon and with SN12C renal was > 100 µM each time. The TGI with SK-OV-3 ovarian, with OVCAR-3 ovarian, in the test on NCI-H23 lung, in the test with KM12 colon, in the test with HT29 colon and in the test with HL-60(TB) leukemia was > 100 µM in each case. Also, the TGI with HCT-15 colon and with SN12C renal was > 100 µM each time.
On to `C=C(C[N+](C)(C)C)N/N=C/c1oc(-c2ccc(OC)c(OC)c2)c(-c2ccc(OC)c(OC)c2)c1[N+](=O)[O-]`, for which the TGI in the test with SK-OV-3 ovarian was 64.4 µM; in the test with OVCAR-3 ovarian it was 71.6 µM; with NCI-H23 lung it was 44.7 µM; in the test on KM12 colon, 31.5 µM; in the test with HT29 colon it was 32.1 µM; with HL-60(TB) leukemia it was 33.9 µM. Moreover, the TGI in the test with HCT-15 colon is 36.8 µM; in the test with SN12C renal, 32.6 µM; in the test with EKVX NSCLC it was > 100 µM.
Regarding `COc1cc2c3c(c1OC)/C(=N/OS(=O)(=O)c1ccc(C)cc1)CC3N(S(=O)(=O)c1ccc(C)cc1)CC2` (centres undefined), the TGI with SK-OV-3 ovarian, in the test with OVCAR-3 ovarian, in the test on NCI-H23 lung, in the test on KM12 colon, in the test on HT29 colon and in the test on HL-60(TB) leukemia was > 100 µM throughout. The TGI in the test with SN12C renal and in the test on EKVX NSCLC was > 100 µM in each case.
For the compound `Cc1cc(N(CCC#N)CCC#N)ccc1/C=C/C(=O)Nc1ccccc1Cl`, the TGI in the test on SK-OV-3 ovarian, in the test on OVCAR-3 ovarian, in the test with NCI-H23 lung, in the test on KM12 colon, in the test on HT29 colon and in the test with HL-60(TB) leukemia was > 100 µM throughout. For the same compound, the TGI in the test with HCT-15 colon, in the test with SN12C renal and in the test with EKVX NSCLC was > 100 µM each time.
For the compound `C=CCN(N=O)C(=O)ON1C(=O)CCC1=O`, the TGI in the test with SK-OV-3 ovarian, in the test with OVCAR-3 ovarian, with NCI-H23 lung, in the test on KM12 colon, in the test on HT29 colon and in the test with HL-60(TB) leukemia was > 100 µM each time. Further, the TGI with HCT-15 colon, in the test with SN12C renal and in the test with EKVX NSCLC was > 100 µM throughout.
For the compound `COC(=O)C1=C(C(=O)OC)N(C(C)C)[C@H]2C(C(=O)OC)=C(C(=O)OC)N(C(C)C)[C@@H]12`, the TGI with SK-OV-3 ovarian, in the test with OVCAR-3 ovarian, in the test on NCI-H23 lung, in the test with KM12 colon, in the test on HT29 colon and with HL-60(TB) leukemia was > 100 µM each time. Moreover, the TGI in the test on HCT-15 colon, with SN12C renal and in the test with EKVX NSCLC was > 100 µM throughout.
Take `C1=CC=C2NCCSCCNC3=CC=CC=CC3=NCCSCCN=C2C=C1`: the TGI with SK-OV-3 ovarian, in the test with OVCAR-3 ovarian, in the test with NCI-H23 lung, in the test on KM12 colon, in the test with HT29 colon and in the test with HL-60(TB) leukemia was > 100 µM each time. Moreover, the TGI in the test with HCT-15 colon, with SN12C renal and with EKVX NSCLC was > 100 µM in each case.
Turning to `O=C1Cc2ccccc2CCc2ccccc21`, the TGI with SK-OV-3 ovarian, in the test on OVCAR-3 ovarian, in the test on NCI-H23 lung, in the test with KM12 colon, with HT29 colon and with HL-60(TB) leukemia was > 100 µM each time. In addition, the TGI with HCT-15 colon, in the test on SN12C renal and with EKVX NSCLC was > 100 µM each time.
For the compound `CC1(C)Oc2ccccc2N2O[C@@H]3C(=O)N(c4ccccc4)C(=O)[C@@H]3C21c1ccccc1` (some centres undefined), the TGI in the test on SK-OV-3 ovarian is 41 µM; in the test on OVCAR-3 ovarian, 47 µM; with NCI-H23 lung, > 100 µM; in the test on KM12 colon it was > 100 µM; in the test with HT29 colon, 68.5 µM; with EKVX NSCLC it was > 100 µM.
Regarding `CCCCOP1(=O)C=CC(Cl)=C(C)C1` (centres undefined), the TGI amounted to 77.7 µM with OVCAR-3 ovarian; 46.6 µM in the test with KM12 colon; 45 µM in the test on HT29 colon; 39.6 µM with HL-60(TB) leukemia; 32.8 µM in the test with HCT-15 colon; 49.8 µM in the test on SN12C renal. Also, the TGI with EKVX NSCLC is > 100 µM.
On to `O=c1ncccn1C1OC(CO)C(O)C1F` (centres undefined), for which the TGI with SK-OV-3 ovarian, with OVCAR-3 ovarian, with NCI-H23 lung, in the test with KM12 colon, with HT29 colon and in the test on HL-60(TB) leukemia was > 100 µM throughout. Besides, the TGI in the test with HCT-15 colon, with SN12C renal and in the test on EKVX NSCLC was > 100 µM each time. The GI50 in the test with KM12 colon and in the test on HCT-15 colon was > 100 µM throughout.
`CCOC(=O)c1cc(C(=O)O)c(=O)n2c1[nH]c1ccccc12`: the TGI in the test on SK-OV-3 ovarian, in the test with OVCAR-3 ovarian, with NCI-H23 lung, in the test on KM12 colon, with HT29 colon and with HL-60(TB) leukemia was > 100 µM each time. Moreover, the TGI with HCT-15 colon, in the test on SN12C renal and in the test on EKVX NSCLC was > 100 µM each time.
Consider `CN1C=C(C(N)=O)C2CC(O)[C@@](NC(=O)CS(N)(=O)=O)(C(=O)O)C2C1` (some centres undefined), for which the TGI in the test with SK-OV-3 ovarian is 6.75 µM; with OVCAR-3 ovarian it was 42.6 µM; in the test with NCI-H23 lung, 3.48 µM; with KM12 colon it was 49.8 µM; in the test with HT29 colon, 10.6 µM; in the test with HL-60(TB) leukemia, > 100 µM. In addition, the TGI in the test on HCT-15 colon was 66.3 µM; with SN12C renal, > 75.1 µM; in the test on EKVX NSCLC, > 42.6 µM.
Take `O=C1[C@H]2ON(c3ccccc3)C(c3cccc([N+](=O)[O-])c3)[C@H]2C(=O)N1c1ccc(Cc2ccc(N3C(=O)[C@@H]4ON(c5ccccc5)C(c5cccc([N+](=O)[O-])c5)[C@@H]4C3=O)cc2)cc1` (some centres undefined): the TGI with SK-OV-3 ovarian, in the test with OVCAR-3 ovarian, with NCI-H23 lung, with KM12 colon, in the test with HT29 colon and in the test on HL-60(TB) leukemia was > 100 µM each time. Further, the TGI in the test on HCT-15 colon, in the test on SN12C renal and in the test with EKVX NSCLC was > 100 µM in each case.
Turning to `CC(C)(C)c1cc(C(=O)O)c(C(c2ccccc2)c2ccccc2C(=O)O)c(C(=O)O)c1` (centres undefined), the TGI in the test on SK-OV-3 ovarian was 36.9 µM; with OVCAR-3 ovarian, > 100 µM; with NCI-H23 lung, > 100 µM; in the test with KM12 colon it was > 100 µM; in the test on HT29 colon, > 100 µM; in the test on HL-60(TB) leukemia, > 100 µM. Also, the TGI in the test with HCT-15 colon is > 100 µM; in the test with SN12C renal, 49.1 µM; with EKVX NSCLC, > 100 µM.
On to `COC(=O)Cc1cc(=O)oc2c1C(=O)CCC2`, for which the TGI in the test with SK-OV-3 ovarian, in the test on OVCAR-3 ovarian, with NCI-H23 lung, in the test with KM12 colon, in the test with HT29 colon and with HL-60(TB) leukemia was > 100 µM in each case. The TGI in the test on HCT-15 colon, in the test with SN12C renal and in the test on EKVX NSCLC was > 100 µM in each case.
Turning to `BrC(Br)([P+](c1ccccc1)(c1ccccc1)c1ccccc1)[P+](c1ccccc1)(c1ccccc1)c1ccccc1`, the TGI was > 100 µM in the test on SK-OV-3 ovarian; 28.7 µM in the test with OVCAR-3 ovarian; 34 µM with NCI-H23 lung; 31.9 µM with HT29 colon; 54.3 µM in the test on HL-60(TB) leukemia; 98.2 µM in the test on HCT-15 colon. Moreover, the TGI was 61.3 µM in the test on SN12C renal and 63 µM in the test on EKVX NSCLC.
Consider `O=C(NOC(=O)c1ccc([N+](=O)[O-])cc1)c1ccc(Cl)cc1`, for which the TGI is > 100 µM in the test with SK-OV-3 ovarian; > 100 µM in the test on NCI-H23 lung; > 100 µM in the test on KM12 colon; > 100 µM with HT29 colon; 34.3 µM with HL-60(TB) leukemia; > 100 µM with HCT-15 colon. In addition, the TGI in the test on SN12C renal and with EKVX NSCLC was > 100 µM each time.
As to `CC12O[Te]34OC1(C)C(C)(O3)C2(C)O4`, the TGI with SK-OV-3 ovarian worked out at 36.3 µM; with OVCAR-3 ovarian, 30.4 µM; with NCI-H23 lung, 34.8 µM; in the test with KM12 colon it was 27.4 µM; in the test on HT29 colon, 30.3 µM; with HCT-15 colon it was 54 µM. For the same compound, the TGI was 23 µM with SN12C renal and 62.6 µM in the test with EKVX NSCLC.
As for `CN1C(=O)CC2(C)c3cc(C=O)ccc3N(C)C12` (centres undefined), the TGI with SK-OV-3 ovarian, in the test with OVCAR-3 ovarian, with NCI-H23 lung, with KM12 colon, with HT29 colon and with HCT-15 colon was > 100 µM in each case. In addition, the TGI with SN12C renal and with EKVX NSCLC was > 100 µM throughout.
As for `O=C1OC(c2ccc(Cl)c3ccccc23)c2ccccc21` (centres undefined), the TGI in the test on SK-OV-3 ovarian, with NCI-H23 lung, in the test with KM12 colon, in the test with HT29 colon, in the test on HL-60(TB) leukemia and with HCT-15 colon was > 100 µM each time. The TGI in the test on SN12C renal and in the test with EKVX NSCLC was > 100 µM throughout.
On to `CCC1(Cl)C(=O)NC(=O)N(C2CC(O)C(CO)O2)C1N=[N+]=[N-]` (centres undefined), for which the TGI in the test on SK-OV-3 ovarian, in the test with OVCAR-3 ovarian, in the test with NCI-H23 lung, with HT29 colon, in the test with HL-60(TB) leukemia and in the test with SN12C renal was > 100 µM each time. For the same compound, the TGI with EKVX NSCLC is > 100 µM.
